Data: US7910575B2, “Prophylactic or therapeutic agents for allergic ophthalmic diseases or allergic nasal diseases, comprising tricyclic triazolobenzazepine derivative” (Meiji Seika Kaisha, Ltd., priority 2006, dated 2011)
Marks after values point to notes of the source that are not given here.

Legend:
[1] = system: allergic rhinitis; test: Prophylactic effect on allergic rhinitis, oral administration; type: in vivo, rat; conditions: 15 min before antigen administration
Protocol: The prophylactic effect of compound B on allergic rihinitis in the same manner as in Test Example 4-1, except that compound B was suspended in hydroxypropylmethylcellulose and the suspension was orally administered. The medicament was administered 15 min before the administration of the antigin (start of allergy).

[2] = WO 99/16770; cited from earlier work
[3] = system: rabbit eye (conjunctiva); test: Severe eye irritation test using rabbits; type: in vivo; conditions: 1%, instillation six times per day at 30 min intervals for two days

## COc1cc2[nH]c(=O)c3nn(C(OC(=O)OC(C)C)C(C)C)nc3c(=O)c2cc1OC (stereo not shown) [Compound B, 2-(1-Isopropoxycarbonyloxy-2-methylpropyl)-7,8-dimethoxy-4(5H),10-dioxo-2H-1,2,3-triazolo[4,5-c][1]benzazepine]
[1]; 1 mg/kg (200 μg/rat)
  Increase in dye leakage amount Inhibition ratio: 46.3% **
[1]; 5 mg/kg (1000 μg/rat)
  Increase in dye leakage amount Inhibition ratio: 81.9% **
[2]
  improvement of absorption upon oral administration as compared with compound A: by a factor of seven
[3]
  eye irritation: only slight reddening of the conjunctiva was observed
